From PubChem BioAssay (NCI)
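In this assay, cells in 96-well plates receive the compound at five concentrations for 48 hours. Endpoints are linearly interpolated between the surrounding concentrations. At the TGI there is no net growth.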

Experiments:
Assay in all cases: inhibition of tumour cell growth, NCI panel, 48 h
U251 CNS = system: U251 CNS
EKVX NSCLC = system: EKVX NSCLC
MCF7 breast = system: MCF7 breast
MOLT-4 leukemia = system: MOLT-4 leukemia
SK-MEL-5 melanoma = system: SK-MEL-5 melanoma
MDA-MB-231 breast = system: MDA-MB-231 breast
SNB-75 CNS = system: SNB-75 CNS
OVCAR-8 ovarian = system: OVCAR-8 ovarian
786-0 renal = system: 786-0 renal
NCI-H522 lung = system: NCI-H522 lung
NCI-H226 lung = system: NCI-H226 lung
SN12C renal = system: SN12C renal

Compound | TGI (U251 CNS) [µM] | TGI (EKVX NSCLC) [µM] | TGI (MCF7 breast) [µM] | TGI (MOLT-4 leukemia) [µM] | TGI (SK-MEL-5 melanoma) [µM] | TGI (MDA-MB-231 breast) [µM] | TGI (SNB-75 CNS) [µM] | TGI (OVCAR-8 ovarian) [µM] | TGI (786-0 renal) [µM] | TGI (NCI-H522 lung) [µM] | TGI (NCI-H226 lung) [µM] | TGI (SN12C renal) [µM]
C=CC1(CBr)CCC(C(C)(C)Br)O1 (configuration not stated) | 15.9 | 32.1 | 34.1 | 7.06 | 23.2 | 28.3 | 20.4 | 9.45 | 6.56 | 7.14 | 46.7 | 33.1
CC1(C)N=C(N)N=C(N)N1c1ccc(CCCCc2ccc(Cl)cc2Cl)cc1 | 15.2 | 45.1 | 11.8 | > 100 | 2.84 | 16.6 | – | 16.1 | 15.3 | 14.3 | – | 12.7
C=CCN1C(=O)/C(=C/c2cccs2)N=C1SC1OC(COC(=O)c2ccccc2)C(OC(=O)c2ccccc2)C1OC(=O)c1ccccc1 (configuration not stated) | > 100 | > 100 | > 100 | > 100 | > 100 | > 100 | > 100 | > 100 | – | 28 | > 100 | –
COc1cc(/C=C/C(=O)O)ccc1O | > 100 | > 100 | > 100 | > 100 | > 100 | > 100 | > 100 | > 100 | > 100 | > 100 | > 100 | > 100
CCC(/C=C/c1ccccc1)=N\NC(=S)N/N=C(/C=C/c1ccccc1)CC | > 100 | > 100 | > 100 | > 100 | > 100 | > 100 | > 100 | 45.9 | > 100 | > 100 | > 100 | > 100
COC(=O)c1cc(C)ccc1CC(Cc1ccccc1C)C(=O)OC (configuration not stated) | – | 76.3 | 94.8 | 24.7 | 28.4 | > 100 | > 100 | > 100 | > 100 | 74.1 | > 100 | > 100
COC(=O)c1ccc(NCC2=CC(=O)c3ccccc3C2=O)cc1 | 63 | 66.5 | > 100 | > 29.1 | 27.6 | 10.3 | 46.8 | > 100 | 43.2 | 42.3 | 39.2 | 59.3
C=C1CC(CNc2cc(Cl)nc(N)n2)C1 | > 100 | > 100 | > 100 | > 100 | > 100 | > 100 | > 100 | > 100 | > 100 | > 100 | > 100 | > 100
COc1cccc2c1C(=O)c1ccc3cc(CO)cc(O)c3c1C2=O | 5.41 | 4.89 | 1.56 | 4.22 | 0.508 | 2.58 | 9.4 | 2.22 | 4.24 | 5.89 | 5.54 | 2.86
CC1(C)OC2CN(C(=O)OCc3ccccc3)C(CO)C2O1 (configuration not stated) | > 100 | > 100 | > 100 | > 100 | > 100 | > 100 | > 100 | > 100 | > 100 | > 100 | > 100 | > 100
C=CCOc1ccc(C2c3c([nH][nH]c3=O)CC(C)(O)C2C(=O)OC)cc1OC (configuration not stated) | > 100 | > 100 | > 100 | > 100 | > 100 | > 100 | > 100 | > 100 | > 100 | > 100 | – | > 100
CC1(C)OC[C@@]2([C@@H]3CC[C@@H](C3)C2(C)C)N1O | > 100 | > 100 | > 100 | > 100 | > 100 | > 100 | > 100 | > 100 | > 100 | > 100 | > 100 | > 100
OCC1CCCCN1Cc1nc2ccc(Cl)cc2[nH]1 (configuration not stated) | > 100 | > 100 | > 100 | > 100 | > 100 | > 100 | > 100 | > 100 | > 100 | > 100 | > 100 | > 100
CCOC(=O)NNC1(SC)NC(=O)c2c(cc(Cl)oc2=O)O1 (configuration not stated) | 25.5 | 20.4 | 5.84 | 10.3 | > 45.5 | 25.1 | 22.2 | 5.56 | 4.84 | 6.26 | 43.8 | 14.7
O/N=C1\CC2(N3CCOCC3)CCC1(Cc1ccccc1)CC2 | 38.3 | > 100 | > 100 | > 100 | > 100 | 67 | 34.9 | 48.1 | 41.9 | > 100 | 83.1 | > 100
c1ccc2c(Cc3c[nH]c4ccccc34)c[nH]c2c1 | 37.2 | 32.5 | > 100 | 61.1 | 27.2 | 31.5 | 36.8 | 42.8 | 33.6 | 47.9 | 22.5 | 31.7
COc1ccc(CN=C2Nc3ccncc3S(=O)(=O)N2c2ccccc2)cc1 | > 100 | > 100 | > 100 | 44.7 | 47.2 | > 100 | > 100 | > 100 | > 100 | > 100 | > 100 | > 100
O=C1CNc2cc(N3CCN(c4cccc(C(F)(F)F)c4)CC3)ccc2N1 | > 100 | > 100 | > 90.1 | > 84.3 | 40.3 | > 100 | > 100 | > 100 | > 100 | 46 | > 100 | > 100
COc1ccc(C2c3cc4c(cc3OC(N3CCOCC3)C2C)OCO4)c(OC)c1 (configuration not stated) | 15.5 | > 85.3 | 33.8 | 31.9 | 11.5 | 32.5 | 23.4 | > 74.7 | 41.1 | 8.95 | 14.4 | 65.9
